Tests used:
3T3 SV-40 cells = assay: Suppression of proliferation of mouse fibroblasts transformed by SV-40 virus (3T3 SV-40), Trypan blue living cell count; format: cell-based; conditions: for Rate of suppression (%): 3T3 SV-40 cells, 5 μg/ml
Method: (§1) The activity of one of the present substances, 3-dansyloxyestradiol-17β-[[4-[p-{bis(2-chloroethyl)amino}phenyl]butyryloxy]]acetate in suppressing the proliferation of (1) the fibroblasts of mouse (3T3) and (2) transformed fibroblasts of mouse by SV-40 virus (3T3 SV-40) was studied by in vitro tests as follows:
(§2) Into a culture medium consisting of 90% by weight of DALBECCO MEM and 10% of bovine foetus serum, a solution of the test substance in dimethylsulfoxide at a rate of 5 μg/ml was added (dimethylsulfoxide being 1% of the culture medium). After adjusting the pH of the three culture media respectively to 6.5, 7.0 and 7.8, the target cells were implanted into each culture medium at a rate of 2×10^4 cells/ml, and the culture media were incubated at 37° C. in an atmosphere of 5% of carbon dioxide for 3 and 6 days. After ending the incubation, the number of living cells which were not dyed with Trypan blue enumerated in the cultured medium to calculate the rate of suppression of the proliferation of the fibroblasts as follows: [formula] where Nc is the number of the living fibroblasts in control group and Nt is the number of living fibroblasts in the test group both in the unit area.
(§3) The activity of one of the present substance, 3-dansyloxyestradiol-17β-[[2-[p-{bis(2-chloroethyl)amino}phenyl]acetoxy]]acetate in suppressing the proliferation of mouse fibroblasts (3T3) and SV-40 virus-transformed fibroblasts (3T3 SV-40) was examined by the same method as in Example 4 except for (1) the days of incubation of 3 and 5 days instead of 3 and 6 days in Example 4 and (2) the pH of the culture medium of 6.7 instead of 6.7, 7.0 and 7.8 in Example 4.

[1] = test system: 3T3 SV-40 cells vs 3T3 cells; assay: Intaking of test substance by 3T3 SV-40 cells compared to 3T3 cells, fluorescence microscope; format: cell-based, mouse
Method: Intaking of one of the present substances, 3-dansyloxyestradiol-17β-[[4-[p-{bis(2-chloroethyl)amino}phenyl]butyryloxy]]acetate, by mouse fibroblasts (3T3) and mouse transformed fibroblasts by SV-40 virus (3T3 SV-40) was examined with a fluorescence microscope under the following conditions:
Concentration of the test substance: 10 and 50 μg/ml
pH of culture medium: 6.5 and 7.8
Number of implanted cells: 2×10^4 cells/ml
Temperature and days of incubation: 37° C. for 5 days
Fixation: by aqueous 2.5% glutaraldehyde phosphate buffer for 90 minutes
Examination: by using a microscope (made by Olympus, BHS-RFK) with an exciting filter UGI and auxiliary absorption filter Y-475.
In the similar manner to that in Example 6, intaking of one of the present substances, 3-dansyloxyestradiol-17β-[[2-[p-{bis(2-chloroethyl)amino}phenyl]acetoxy]]acetate by mouse fibroblast (3T3) and mouse transformed fibroblast by SV-40 virus (3T3 SV-40) was studied.

3T3 cells = assay: Suppression of proliferation of mouse fibroblasts (3T3), Trypan blue living cell count; format: cell-based; conditions: 5 μg/ml
Method: as §1, §2, §3

[2] = Fluorescent determination (emission wave length); format: physicochemical; conditions: for emitted light wave length: ethyl acetate
Source text: As a result of fluorescent determination at a wave length of excitation light of 356 nm, the emitted light of 520 nm in wave length with ethyl acetate was observed.
As a result of fluorescent determination at a wave length of excitation light of 357 nm, the emitted light of 525 nm in wave length of this substance with ethyl acetate was observed.
Onto a chromatographic column prepared by filling 400 g of silica gel (made by Merck Co. under the name of Art 7734) into a glass tube of 36 mm in inner diameter and 865 mm in length by using chloroform, a solution of 12 g of the crude product dissolved in 50 ml of chloroform was charged, and the absorbed product was subjected to elution by a flow of chloroform at a flow rate of 7 ml/min, thereby 1400 ml of a fraction showing one spot on the chromatogram were obtained. By condensing the fraction, 9 g of wet product were obtained. The wet product was dissolved in 30 ml of chloroform, and after adding 50 ml of hexane to the prepared solution, the mixture was cooled while stirring thereof, however, since no crystal was precipitated therefrom, the solvent was distilled off therefrom by using an evaporator and the residue was dried under vacuum to obtain 7 g of a solid, fluorescent substance in a yield of 68.2%. […] Its emission fluorescence was 521 nm by the excitation light of 358 nm.

FLOW 4000 cell = assay: Suppression of proliferation of human normal renal cells (FLOW 4000); format: cell-based; conditions: 5 μg/ml, 37° C.
Method: as §2
(§4) The activity of one of the present substance, 3-dansyloxyestradiol-17β-[[4-[p-{bis(2-chloroethyl)amino}phenyl]butyryloxy]]acetate, in suppressing the proliferation of (1) human nomal renal cells (FLOW 4000) and (2) human renal cancer cells (RC) was examined as follows:
(§5) Into the same culture medium as in Example 4, a solution of the test substance dissolved in dimethylsulfoxide was added at a rate of 5 μg/ml (dimethylsulfoxide being 1% of the culture medium), and after adjusting the three culture media respectively to pH of 6.5, 7.0 and 7.8, the cells were implanted into each culture medium at a rate of 2×10^4 cells/ml, and the culture media implanted were incubated for 6 days at 37° C. in an atmosphere of 5% of carbon dioxide. The rate of suppression of the proliferation of the implanted cells was calculated by the same formula as in Example 4, the results being shown in Table 2.

RC cell = assay: Suppression of proliferation of human renal cancer cells (RC); format: cell-based; conditions: 5 μg/ml, 37° C.; for Rate of suppression (%): RC cell
Method: as §2, §4, §5

[3] = test system: human renal cancer cells (RC) vs normal human renal cells (FLOW 4000); assay: Intaking of test substance by RC cells compared to FLOW 4000 cells, fluorescence microscope; format: cell-based; conditions: Example 8; 37° and 40° C. incubation
Method: In the similar manner to that in Example 7, intaking of one of the present substances, 3-dansyloxyestradiol-17β-[[4-[p-{bis(2-chloroethyl)amino}phenyl]butyryloxy]]acetate by the normal human renal cells (FLOW 4000) and the human renal cancer cells (RC) was examined by using the same fluorescence microscope as in Example 7. The incubation of the implanted cells was carried out at 37° and 40° C.

mouse = conditions: for reference; cited from earlier work
[4] = pH 6.7, 3 days, 37° C. (Example 6)
[5] = pH 6.7, 5 days, 37° C. (Example 6)

CN(C)c1cccc2c(S(=O)(=O)Oc3ccc4c(c3)CC[C@@H]3[C@@H]4CC[C@]4(C)[C@@H](OC(=O)COC(=O)Cc5ccc(N(CCCl)CCCl)cc5)CC[C@@H]34)cccc12 [3-Dansyloxyestradiol-17β-[[2-[p-{bis(2-chloroethyl)amino}phenyl]acetoxy]]acetate]
Rate of suppression (%) (3T3 SV-40 cells; [4]): 55.72%
Rate of suppression (%) (3T3 SV-40 cells; [5]): 85.86%
Intaking of the test substance by 3T3 SV-40 compared to 3T3 ([1]; Example 9, FIG. 8: 5 μg/ml, pH 6.5, 4 days): remarkable as compared to that by 3T3
Rate of suppression (%) (3T3 cells; [4]): 25.24%
Rate of suppression (%) (3T3 cells; [5]): 53.28%

CN(C)c1cccc2c(S(=O)(=O)Oc3ccc4c(c3)CC[C@@H]3[C@@H]4CC[C@]4(C)[C@H](OC(=O)COC(=O)CCCc5ccc(N(CCCl)CCCl)cc5)CC[C@@H]34)cccc12 [3-dansyloxyestradiol-17α-[[4-[p-{bis(2-chloroethyl)amino}phenyl]butyryloxy]]acetate]
emitted light wave length ([2]; excitation light 357 nm): 525 nm

CN(C)c1cccc2c(S(=O)(=O)Oc3ccc4c(c3)CC[C@@H]3[C@@H]4CC[C@]4(C)[C@@H](OC(=O)COC(=O)c5ccc(N(CCCl)CCCl)cc5)CC[C@@H]34)cccc12 [3-dansyloxyestradiol-17β-[[1-[p-{bis(2-chloroethyl)amino}phenyl]carbonyloxy]]acetate]
emission fluorescence ([2]; excitation light 358 nm): 521 nm

CN(C)c1cccc2c(S(=O)(=O)Oc3ccc4c(c3)CC[C@@H]3[C@@H]4CC[C@]4(C)[C@@H](OC(=O)COC(=O)CCCc5ccc(N(CCCl)CCCl)cc5)CC[C@@H]34)cccc12 [3-dansyloxyestradiol-17β-[[4-[p-{bis(2-chloroethyl)amino}phenyl]butyryloxy]]acetate]
Rate of suppression (%) (FLOW 4000 cell; pH 6.5, 6 days): 27.83%
Rate of suppression (%) (FLOW 4000 cell; pH 7.0, 6 days): 14.00%
Rate of suppression (%) (FLOW 4000 cell; pH 7.8, 6 days): -1.10%
Rate of suppression (%) (3T3 SV-40 cells; pH 6.5, 3 days, 37° C.): 64.19%
Rate of suppression (%) (3T3 SV-40 cells; pH 6.5, 6 days, 37° C.): 91.60%
Rate of suppression (%) (3T3 SV-40 cells; pH 7.0, 3 days, 37° C.): 55.80%
Rate of suppression (%) (3T3 SV-40 cells; pH 7.0, 6 days, 37° C.): 85.88%
Rate of suppression (%) (3T3 SV-40 cells; pH 7.8, 3 days, 37° C.): 31.60%
Rate of suppression (%) (3T3 SV-40 cells; pH 7.8, 6 days, 37° C.): 38.80%
activity of suppressing the proliferation of transformed cells by SV-40 virus (in words) (3T3 SV-40 cells; Example 4, pH range of from 6.5 to 7.8, 5 μg/ml): clearly showed an activity of suppressing the proliferation of transformed cells by SV-40 virus
suppression of the proliferation of human renal cancer cells (RC) (in words) (RC cell; Example 5, 6 days): clearly suppressed the proliferation of the human renal cancer cells (RC)
Rate of suppression (%) (RC cell; pH 6.5, 6 days): 54.54%
Rate of suppression (%) (RC cell; pH 7.0, 6 days): 46.68%
Rate of suppression (%) (RC cell; pH 7.8, 6 days): 22.39%
Intaking of the test substance by 3T3 SV-40 cells compared to 3T3 cells ([1]; Example 7, 10 and 50 μg/ml, pH 6.5 and 7.8, 37° C., 5 days): remarkably recognized as compared to that by 3T3 cells
Rate of suppression (%) (3T3 cells; pH 6.5, 3 days, 37° C.): 16.8%
Rate of suppression (%) (3T3 cells; pH 6.5, 6 days, 37° C.): 14.76%
Rate of suppression (%) (3T3 cells; pH 7.0, 3 days, 37° C.): 6.45%
Rate of suppression (%) (3T3 cells; pH 7.0, 6 days, 37° C.): 20.03%
Rate of suppression (%) (3T3 cells; pH 7.8, 3 days, 37° C.): 7.87%
Rate of suppression (%) (3T3 cells; pH 7.8, 6 days, 37° C.): 11.30%
Intaking of the test substance by RC cells compared to FLOW 4000 cells [3]: remarkable as compared to that by the normal human cells (FLOW 4000) at both 37° and 40 °C
emitted light wave length ([2]; excitation light 356 nm): 520 nm

O=C(O)CCCc1ccc(N(CCCl)CCCl)cc1 [chlorambucil]
LD50 (mouse): 20 mg/kg body weight

From patent US4938897A (Kureha Kagaku Kogyo Kabushiki Kaisha, priority 1985, dated 1990)
